Test results taken from PubChem BioAssay (NCI).
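Compound exposure: 48 hours, 5 concentrations, 96-well plates. TGI is the concentration that stops growth completely.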

Key:
Test in all cases: inhibition of tumour cell growth, NCI panel, 48 h
SW-620 colon = test system: SW-620 colon
A498 renal = test system: A498 renal
786-0 renal = test system: 786-0 renal
HCT-15 colon = test system: HCT-15 colon
SF-539 CNS = test system: SF-539 CNS
OVCAR-8 ovarian = test system: OVCAR-8 ovarian
BT-549 breast = test system: BT-549 breast
COLO 205 colon = test system: COLO 205 colon
UACC-257 melanoma = test system: UACC-257 melanoma
HCT-116 colon = test system: HCT-116 colon
U251 CNS = test system: U251 CNS
A549 NSCLC = test system: A549 NSCLC
CCRF-CEM leukemia = test system: CCRF-CEM leukemia
OVCAR-5 ovarian = test system: OVCAR-5 ovarian
K-562 leukemia = test system: K-562 leukemia
LOX IMVI melanoma = test system: LOX IMVI melanoma
UO-31 renal = test system: UO-31 renal
HOP-92 NSCLC = test system: HOP-92 NSCLC
MDA-N = test system: MDA-N
IGROV1 ovarian = test system: IGROV1 ovarian
RXF 393 renal = test system: RXF 393 renal
CAKI-1 renal = test system: CAKI-1 renal
KM12 colon = test system: KM12 colon
MDA-MB-435 = test system: MDA-MB-435
ACHN renal = test system: ACHN renal
SF-295 CNS = test system: SF-295 CNS
MALME-3M melanoma = test system: MALME-3M melanoma
NCI-H460 lung = test system: NCI-H460 lung
TK-10 renal = test system: TK-10 renal
NCI/ADR-RES ovarian = test system: NCI/ADR-RES ovarian
PC-3 prostate = test system: PC-3 prostate
M14 melanoma = test system: M14 melanoma
MDA-MB-231 breast = test system: MDA-MB-231 breast
RPMI-8226 leukemia = test system: RPMI-8226 leukemia
OVCAR-3 ovarian = test system: OVCAR-3 ovarian
SF-268 CNS = test system: SF-268 CNS
MCF7 breast = test system: MCF7 breast
HS 578T breast = test system: HS 578T breast
DU-145 prostate = test system: DU-145 prostate
SK-MEL-5 melanoma = test system: SK-MEL-5 melanoma
UACC-62 melanoma = test system: UACC-62 melanoma
HCC-2998 colon = test system: HCC-2998 colon
SN12C renal = test system: SN12C renal
NCI-H23 lung = test system: NCI-H23 lung
HT29 colon = test system: HT29 colon
SK-OV-3 ovarian = test system: SK-OV-3 ovarian
OVCAR-4 ovarian = test system: OVCAR-4 ovarian
NCI-H226 lung = test system: NCI-H226 lung
SK-MEL-2 melanoma = test system: SK-MEL-2 melanoma
HL-60(TB) leukemia = test system: HL-60(TB) leukemia
SK-MEL-28 melanoma = test system: SK-MEL-28 melanoma
T-47D breast = test system: T-47D breast
HOP-62 NSCLC = test system: HOP-62 NSCLC
SNB-19 CNS = test system: SNB-19 CNS
SNB-75 CNS = test system: SNB-75 CNS
EKVX NSCLC = test system: EKVX NSCLC
NCI-H522 lung = test system: NCI-H522 lung
SR leukemia = test system: SR leukemia
MOLT-4 leukemia = test system: MOLT-4 leukemia

CN1CCN(c2c(O)c3c(c(O)c2Cl)C(=O)C=CC3=O)CC1
TGI (SW-620 colon): 0.369 µM
TGI (A498 renal): 4.54 µM
TGI (786-0 renal): 0.718 µM
TGI (HCT-15 colon): 0.491 µM
TGI (SF-539 CNS): 2.32 µM
TGI (OVCAR-8 ovarian): 0.656 µM
TGI (BT-549 breast): 1.27 µM
TGI (COLO 205 colon): 0.38 µM
TGI (UACC-257 melanoma): 1.58 µM
TGI (HCT-116 colon): 0.51 µM
TGI (U251 CNS): 4.07 µM
TGI (A549 NSCLC): 4.27 µM
TGI (CCRF-CEM leukemia): 0.41 µM
TGI (OVCAR-5 ovarian): 2.93 µM
TGI (K-562 leukemia): 0.659 µM
TGI (LOX IMVI melanoma): 1.66 µM
TGI (UO-31 renal): 1.22 µM
TGI (HOP-92 NSCLC): 0.598 µM
TGI (MDA-N): 1.2 µM
TGI (IGROV1 ovarian): 2.6 µM
TGI (RXF 393 renal): 0.602 µM
TGI (CAKI-1 renal): 1.56 µM
TGI (KM12 colon): 3.93 µM
TGI (MDA-MB-435): 0.538 µM
TGI (ACHN renal): 0.806 µM
TGI (SF-295 CNS): 3.22 µM
TGI (MALME-3M melanoma): 0.448 µM
TGI (NCI-H460 lung): 3.77 µM
TGI (TK-10 renal): 1.58 µM
TGI (NCI/ADR-RES ovarian): 2.65 µM
TGI (PC-3 prostate): 3.27 µM
TGI (M14 melanoma): 0.843 µM
TGI (MDA-MB-231 breast): 1.06 µM
TGI (RPMI-8226 leukemia): 2.34 µM
TGI (OVCAR-3 ovarian): 1.47 µM
TGI (SF-268 CNS): 3.72 µM
TGI (MCF7 breast): 0.576 µM
TGI (HS 578T breast): 5.45 µM
TGI (DU-145 prostate): 3.19 µM
TGI (SK-MEL-5 melanoma): 1.11 µM
TGI (UACC-62 melanoma): 2.82 µM
TGI (HCC-2998 colon): 3.99 µM
TGI (SN12C renal): 2.1 µM
TGI (NCI-H23 lung): 1.54 µM
TGI (HT29 colon): 1.38 µM
TGI (SK-OV-3 ovarian): 8.34 µM
TGI (OVCAR-4 ovarian): 1.37 µM
TGI (NCI-H226 lung): 4.08 µM
TGI (SK-MEL-2 melanoma): 2.64 µM
TGI (HL-60(TB) leukemia): 0.332 µM
TGI (SK-MEL-28 melanoma): 2.51 µM
TGI (T-47D breast): 4.25 µM
TGI (HOP-62 NSCLC): 3.36 µM
TGI (SNB-19 CNS): 6.32 µM
TGI (SNB-75 CNS): 3.56 µM
TGI (EKVX NSCLC): 3.04 µM
TGI (NCI-H522 lung): 0.765 µM

CCN1CCCCC(=N\O)/C(=N/O)CCCC1
TGI (SW-620 colon): > 100 µM
TGI (A498 renal): > 100 µM
TGI (786-0 renal): > 100 µM
TGI (HCT-15 colon): > 100 µM
TGI (SR leukemia): > 100 µM
TGI (SF-539 CNS): > 100 µM
TGI (OVCAR-8 ovarian): > 100 µM
TGI (BT-549 breast): > 100 µM
TGI (COLO 205 colon): > 100 µM
TGI (UACC-257 melanoma): > 100 µM
TGI (HCT-116 colon): > 100 µM
TGI (U251 CNS): > 100 µM
TGI (A549 NSCLC): > 100 µM
TGI (CCRF-CEM leukemia): > 100 µM
TGI (OVCAR-5 ovarian): > 100 µM
TGI (LOX IMVI melanoma): > 100 µM
TGI (UO-31 renal): > 100 µM
TGI (HOP-92 NSCLC): > 100 µM
TGI (MDA-N): > 100 µM
TGI (IGROV1 ovarian): > 100 µM
TGI (RXF 393 renal): > 100 µM
TGI (CAKI-1 renal): > 100 µM
TGI (KM12 colon): > 100 µM
TGI (MDA-MB-435): > 100 µM
TGI (ACHN renal): > 100 µM
TGI (SF-295 CNS): > 100 µM
TGI (MALME-3M melanoma): > 100 µM
TGI (NCI-H460 lung): > 100 µM
TGI (TK-10 renal): > 100 µM
TGI (NCI/ADR-RES ovarian): > 100 µM
TGI (PC-3 prostate): > 100 µM
TGI (M14 melanoma): > 100 µM
TGI (MDA-MB-231 breast): > 100 µM
TGI (RPMI-8226 leukemia): > 100 µM
TGI (MOLT-4 leukemia): > 100 µM
TGI (OVCAR-3 ovarian): > 100 µM
TGI (SF-268 CNS): > 100 µM
TGI (MCF7 breast): > 100 µM
TGI (HS 578T breast): > 100 µM
TGI (DU-145 prostate): > 100 µM
TGI (SK-MEL-5 melanoma): > 100 µM
TGI (UACC-62 melanoma): > 100 µM
TGI (SN12C renal): > 100 µM
TGI (NCI-H23 lung): > 100 µM
TGI (HT29 colon): > 100 µM
TGI (SK-OV-3 ovarian): > 100 µM
TGI (OVCAR-4 ovarian): > 100 µM
TGI (NCI-H226 lung): > 100 µM
TGI (SK-MEL-2 melanoma): > 100 µM
TGI (HL-60(TB) leukemia): > 100 µM
TGI (SK-MEL-28 melanoma): > 100 µM
TGI (HOP-62 NSCLC): > 100 µM
TGI (SNB-19 CNS): > 100 µM
TGI (SNB-75 CNS): > 100 µM
TGI (EKVX NSCLC): > 100 µM
TGI (NCI-H522 lung): > 100 µM

O=C(CC(=O)Nc1ccccc1Cl)NNC(Sc1ccccc1)c1cc(N=Nc2ccc(Br)cc2)ccc1O (stereo unspecified)
TGI (SW-620 colon): 2.77 µM
TGI (A498 renal): 5.6 µM
TGI (786-0 renal): 2.42 µM
TGI (HCT-15 colon): > 10 µM
TGI (SF-539 CNS): 3.8 µM
TGI (OVCAR-8 ovarian): 2.39 µM
TGI (BT-549 breast): 5.99 µM
TGI (COLO 205 colon): > 10 µM
TGI (UACC-257 melanoma): > 10 µM
TGI (HCT-116 colon): 1.31 µM
TGI (U251 CNS): 8.26 µM
TGI (A549 NSCLC): > 10 µM
TGI (CCRF-CEM leukemia): 6.21 µM
TGI (OVCAR-5 ovarian): > 10 µM
TGI (K-562 leukemia): 6.63 µM
TGI (LOX IMVI melanoma): 3.15 µM
TGI (UO-31 renal): 3.96 µM
TGI (HOP-92 NSCLC): 6.68 µM
TGI (MDA-N): > 10 µM
TGI (IGROV1 ovarian): 5.53 µM
TGI (RXF 393 renal): 5.82 µM
TGI (CAKI-1 renal): 7.19 µM
TGI (KM12 colon): 5.04 µM
TGI (MDA-MB-435): > 10 µM
TGI (ACHN renal): > 10 µM
TGI (SF-295 CNS): 8.39 µM
TGI (MALME-3M melanoma): 8.73 µM
TGI (NCI-H460 lung): 2.86 µM
TGI (TK-10 renal): 9.08 µM
TGI (NCI/ADR-RES ovarian): 5.61 µM
TGI (PC-3 prostate): 6.21 µM
TGI (M14 melanoma): 2.68 µM
TGI (MDA-MB-231 breast): 8.68 µM
TGI (RPMI-8226 leukemia): > 10 µM
TGI (MOLT-4 leukemia): 1.75 µM
TGI (OVCAR-3 ovarian): 2.91 µM
TGI (SF-268 CNS): > 10 µM
TGI (MCF7 breast): 3.22 µM
TGI (HS 578T breast): 7.18 µM
TGI (DU-145 prostate): > 10 µM
TGI (SK-MEL-5 melanoma): 3.95 µM
TGI (UACC-62 melanoma): 3.9 µM
TGI (HCC-2998 colon): > 10 µM
TGI (SN12C renal): > 10 µM
TGI (NCI-H23 lung): 7.39 µM
TGI (HT29 colon): > 10 µM
TGI (SK-OV-3 ovarian): > 10 µM
TGI (OVCAR-4 ovarian): 5.98 µM
TGI (NCI-H226 lung): 6.04 µM
TGI (SK-MEL-2 melanoma): > 10 µM
TGI (HL-60(TB) leukemia): 1.1 µM
TGI (SK-MEL-28 melanoma): > 10 µM
TGI (T-47D breast): 9.57 µM
TGI (HOP-62 NSCLC): 8.67 µM
TGI (SNB-19 CNS): > 10 µM
TGI (SNB-75 CNS): > 10 µM
TGI (EKVX NSCLC): > 10 µM
TGI (NCI-H522 lung): > 10 µM
